The target of the experiment is T1, human V2 receptor (Homo sapiens, UniProt P30518).
T1 construct: A DNA fragment containing a human V2 receptor code region; expressed in transfected cells
The experiment can be described thus: cAMP production test in V2 receptor expression cell. Type of experiment: cell-based. Conditions: for EC50: human V2 receptor expression cell, 30 minutes at room temperature, HTRF cAMP kit; for Emax: maximum reaction by 8-AVP assumed to be 100%. The procedure:
Pharmacological Test (1) Preparation of Human V2 Receptor Expression Cell
A DNA fragment containing a human V2 receptor code region was inserted into an expression vector of a vertebrate cell. The expression vector was genetically introduced into an animal cell to have the human V2 receptor express in the surface of the cell. Since the expression vector could express a neo gene which functions as a G418 resistance marker, it was cultured in a G418-containing medium, thereby selectively obtaining a human V2 receptor stable expression cell.
(2) cAMP Production Test in V2 Receptor Expression Cell
The human V2 receptor expression cell, which was prepared in the above described method, was recovered and resuspended into an incubation buffer (F-12 medium, 20 mM HEPES), and 5 μl of the cell was then divided into a 384-well plate with a density of 15,000 cells/well. 5 μl of a compound solution or an 8-AVP ((Arg^8)-vasopressin) solution, which was diluted with an assay buffer (F-12 medium, 20 mM HEPES, 1 mM IBMX), (total 10 μl/well) was added to each well (final concentration: 15,000 cells/well, 500 μM IBMX, 1% dimethyl sulfoxide). After incubation at room temperature for 30 minutes, a cAMP production amount was measured using a commercially available HTRF cAMP kit (Cisbio Inc.) according to the described protocol. Excel Fit was used in order to find EC50 and Emax values of the test compound.
(In general: Changes in cAMP serve as a functional read-out for many G protein-coupled receptors.)

The results in this text go back to US9586905B2, “Benzoazepine derivative and medical use thereof” (SANWA KAGAKU KENKYUSHO CO., LTD., priority 2012, dated 2017).

T1 sequence (P30518 whole entry, the tested form may be a part): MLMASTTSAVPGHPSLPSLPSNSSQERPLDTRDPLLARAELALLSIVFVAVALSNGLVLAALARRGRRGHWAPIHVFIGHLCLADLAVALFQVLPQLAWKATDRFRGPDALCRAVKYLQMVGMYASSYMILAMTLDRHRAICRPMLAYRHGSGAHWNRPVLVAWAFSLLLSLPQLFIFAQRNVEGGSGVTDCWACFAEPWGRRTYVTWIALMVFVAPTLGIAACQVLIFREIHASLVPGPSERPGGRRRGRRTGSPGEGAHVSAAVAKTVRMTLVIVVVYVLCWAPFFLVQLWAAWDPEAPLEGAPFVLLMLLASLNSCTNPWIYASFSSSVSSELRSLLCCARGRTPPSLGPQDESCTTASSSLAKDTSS

Take `CC1(C(=O)O)CCN(C(=O)c2ccc(N3CCCC3)cc2Cl)c2ccccc2C1` (racemic) [Example 49, 1-[2-chloro-4-(pyrrolidine-1-yl)benzoyl)-4-methyl-2,3,4,5-tetrahydro-1H-benzo[b]azepine-4-carboxylic acid]: it took 0.5 nM to reach a half-maximal effect (EC50) and the maximum response (Emax) (commonly the greatest response seen or fitted, relative to the assay's reference) was determined as 102%.
`CC(C)C(NC(=O)C1(C)CCN(C(=O)c2ccc(OCCCF)cc2Cl)c2ccccc2C1)C(N)=O` (racemic) [Example 73]: the concentration for a half-maximal effect (EC50) (commonly the concentration that produces a half-maximal response) was found to be 1.9 nM and the Emax is 100%.
The molecule `CC1(C(=O)NCC(N)=O)CCN(C(=O)c2ccc(-n3cccn3)cc2Cl)c2ccccc2C1` (racemic) [Example 88] had a half-maximal effective concentration (EC50) of 8.1 nM and a maximum response (Emax) of 93%.
In turn, `Cc1cc(N2CCC(C)C2)ccc1C(=O)N1CCC(F)(C(N)=O)Cc2ccccc21` (racemic) [Example 94] returned a concentration giving a half-maximal response (EC50) of 0.41 nM and an Emax of 101%.
For the molecule `CC1(C(=O)O)CCN(C(=O)c2ccc(-n3cccn3)cc2Cl)c2ccccc2C1` (racemic) [Example 52, 1-[2-chloro-4-(1H-pyrazol-1-yl)benzoyl]-4-methyl-2,3,4,5-tetrahydro-1H-benzo[b]azepine-4-carboxylic acid], the response was half-maximal at 3.9 nM (EC50) and the Emax was 85%.
`Cc1cc(N2CCCC2)ccc1C(=O)N1CCC(C)(C(=O)O)Cc2ccccc21` (single isomer, unassigned) [Example 45, 4-methyl-1-[2-methyl-4-(pyrrolidine-1-yl)benzoyl]-2,3,4,5-tetrahydro-1H-benzo[b]azepine-4-carboxylic acid]: a half-maximal response (EC50) required 0.34 nM and the maximal response (Emax) was determined as 102%.
In the same order, the values of `C[C@@H]1CN(C(=O)c2ccc(N3CCCC3)cc2Cl)c2ccccc2CC1C(=O)O` (mixture of isomers) [Example 56, (3S)-1-[2-chloro-4-(pyrrolidine-1-yl)benzoyl]-3-methyl-2,3,4,5-tetrahydro-1H-benzo[b]azepine-4-carboxylic acid] are 0.1 nM and 102%.
As for `CC(CO)NC(=O)C1Cc2ccccc2N(C(=O)c2ccc(N3CCCC3)cc2Cl)CC1C` (racemic) [Example 98], the response was half-maximal at 1 nM (EC50) and the Emax came to 101%.
`COC(=O)C1(C)CCN(C(=O)c2ccc(N3CCCC3)cc2Cl)c2ccccc2C1` (racemic) [Example 31] yielded an EC50 of 7.9 nM and a maximum response (Emax) of 102%.
In turn, `CCCOc1ccc(C(=O)N2CCC(C)(C(=O)OC)Cc3ccccc32)c(Cl)c1` (racemic) [Example 32] had a 50% effective concentration (EC50) of 9.1 nM and a maximal effect (Emax) of 104%.
`CC1(C(=O)O)CCN(C(=O)c2ccc(-c3ncco3)cc2Cl)c2ccccc2C1` (racemic) [Example 51, 1-[2-chloro-4-(oxazol-2-yl)benzoyl]-4-methyl-2,3,4,5-tetrahydro-1H-benzo[b]azepine-4-carboxylic acid]: a half-maximal effect (EC50) was put at 6 nM and the Emax is 73%.
Consider `Cc1cc(N2CCCC2)ccc1C(=O)N1CCC(C)(C(=O)NC(C)C(N)=O)Cc2ccccc21` (single isomer, unassigned) [Example 68], for which a half-maximal response (EC50) required 0.74 nM and the Emax was found to be 102%.
In the case of `Cc1cc(N2CCC(C)C2)ccc1C(=O)N1CCC(C)(C(=O)NCC(N)=O)Cc2ccccc21` (racemic) [Example 69], the response was half-maximal at 0.53 nM (EC50) and the Emax was 101%.
In turn, `CC(CO)NC(=O)C1(C)CCN(C(=O)c2ccc(-n3cccn3)cc2Cl)c2ccccc2C1` (racemic) [Example 87] yielded a half-maximal effective concentration (EC50) of 9.5 nM and an Emax of 97%.
As to `COC(=O)C1(C)CCN(C(=O)c2ccc(-c3ncco3)cc2Cl)c2ccccc2C1` (racemic) [Example 33], a half-maximal effect (EC50) was put at 20 nM and the Emax turned out to be 96%.
On to `Cc1nnc(NC(=O)C2(C)CCN(C(=O)c3ccc(N4CCCC4)cc3Cl)c3ccccc3C2)o1` (racemic) [Example 79], for which the concentration for a half-maximal effect (EC50) stood at 0.9 nM and the Emax is 100%.
The molecule `Cc1ccn(-c2ccc(C(=O)N3C[C@@H](C)C(C)(C(=O)O)Cc4ccccc43)c(C)c2)n1` (mixture of isomers) [Example 55, (3S)-3,4-dimethyl-1-[2-methyl-4-(3-methyl-1H-pyrazol-1-yl)benzoyl]-2,3,4,5-tetrahydro-1H-benzo[b]azepine-4-carboxylic acid] gave an EC50 of 0.2 nM and an Emax of 101%.
`Cc1cc(N2CCCC2)ccc1C(=O)N1CCC(F)(C(=O)O)Cc2ccccc21` (single isomer, unassigned) [Example 54, 4-fluoro-1-[2-methyl-4-(pyrrolidine-1-yl)benzoyl]-2,3,4,5-tetrahydro-1H-benzo[b]azepine-4-carboxylic acid] registered a 50% effective concentration (EC50) of 0.28 nM and a maximum response (Emax) of 102%.
For the molecule `CC1CN(C(=O)c2ccc(N3CCCC3)cc2Cl)c2ccccc2CC1C(=O)NCC(N)=O` (racemic) [Example 99], the EC50 came to 0.4 nM and the Emax was determined as 102%.
`CC(NC(=O)C1(C)CCN(C(=O)c2ccc(OCC(F)(F)F)cc2Cl)c2ccccc2C1)C(N)=O` (single isomer, unassigned) [Example 76] gave a concentration giving a half-maximal response (EC50) of 0.99 nM and an Emax of 102%.
Molecule `C[C@@H]1CN(C(=O)c2ccc(N3CCCC3)cc2Cl)c2ccccc2CC1(F)C(=O)O` (mixture of isomers) [Example 57, (3R)-1-[2-chloro-4-(pyrrolidine-1-yl)benzoyl]-4-fluoro-3-methyl-2,3,4,5-tetrahydro-1H-benzo[b]azepine-4-carboxylic acid] yielded a 50% effective concentration (EC50) of 0.2 nM and an Emax of 102%.
In turn, `CCNC(=O)CNC(=O)C1(C)CCN(C(=O)c2ccc(N3CCCC3)cc2Cl)c2ccccc2C1` (racemic) [Example 80] gave a half-maximal effective concentration (EC50) of 2.8 nM and a maximal effect (Emax) of 101%.
Regarding `COC(=O)C1(F)Cc2ccccc2N(C(=O)c2ccc(N3CCCC3)cc2Cl)CC1C` (racemic) [Example 43], the EC50 came to 0.1 nM and the Emax turned out to be 102%.
Molecule `CC(CO)NC(=O)C1(F)Cc2ccccc2N(C(=O)c2ccc(N3CCCC3)cc2Cl)CC1C` (racemic) [Example 100] displayed an EC50 of 3 nM and an Emax of 100%.
`CC(CO)NC(=O)C1(C)CCN(C(=O)c2ccc(-c3ncco3)cc2Cl)c2ccccc2C1` (racemic) [Example 85] gave a half-maximal effective concentration (EC50) of 15 nM and an Emax of 94%.
The molecule `CC1(C(=O)NCC(N)=O)CCN(C(=O)c2ccc(-c3ncco3)cc2Cl)c2ccccc2C1` (racemic) [Example 86] returned an EC50 of 17 nM and an Emax of 88%.
`Cc1cc(N2CCC(C)C2)ccc1C(=O)N1CCC(F)(C(=O)NCC(N)=O)Cc2ccccc21` (racemic) [Example 95] yielded a concentration giving a half-maximal response (EC50) of 0.99 nM and an Emax of 102%.
On the same counts, the results for `COC(=O)C1Cc2ccccc2N(C(=O)c2ccc(N3CCCC3)cc2Cl)CC1C` (racemic) [Example 42] are 0.8 nM and 103%.
In the same order, the values of `Cc1ccn(-c2ccc(C(=O)N3CC(C)C(C)(C(=O)NCC(N)=O)Cc4ccccc43)c(C)c2)n1` (racemic) [Example 97] are 0.56 nM and 102%.
As for `COC(=O)C1(C)CCN(C(=O)c2ccc(-n3ccc(C)n3)cc2C(F)(F)F)c2ccccc2C1` (single isomer, unassigned) [Example 35], the concentration for a half-maximal effect (EC50) came out at 1.4 nM and the Emax worked out at 102%.
As for `CCCOc1ccc(C(=O)N2CCC(C)(C(=O)NC(C)CO)Cc3ccccc32)c(Cl)c1` (racemic) [Example 83], the concentration for a half-maximal effect (EC50) was 3.4 nM and the maximal effect (Emax) was determined as 100%.
With `CC1(C(=O)NCc2nnco2)CCN(C(=O)c2ccc(N3CCCC3)cc2Cl)c2ccccc2C1` (racemic) [Example 82], the EC50 was determined as 1.1 nM and the Emax was found to be 101%.
On the same counts, the results for `COC(=O)C1(C)CCN(C(=O)c2ccc(-n3cccn3)cc2Cl)c2ccccc2C1` (racemic) [Example 34] are 9.8 nM and 98%.
`CC1CN(C(=O)c2ccc(N3CCCC3)cc2Cl)c2ccccc2CC1(F)C(=O)NCC(N)=O` (racemic) [Example 101] registered an EC50 of 1.1 nM and a maximal effect (Emax) of 102%.
In turn, `CCCOc1ccc(C(=O)N2CCC(C)(C(=O)O)Cc3ccccc32)c(Cl)c1` (racemic) [Example 50, 1-(2-chloro-4-propoxybenzoyl)-4-methyl-2,3,4,5-tetrahydro-1H-benzo[b]azepine-4-carboxylic acid] had an EC50 of 0.9 nM and a maximal response (Emax) of 100%.
On to `COC(=O)C1(F)CCN(C(=O)c2ccc(N3CCCC3)cc2C)c2ccccc2C1` (single isomer, unassigned) [Example 38], for which the 50% effective concentration (EC50) worked out at 0.06 nM and the Emax amounted to 101%.
`CCCOc1ccc(C(=O)N2CCC(C)(C(=O)NCC(N)=O)Cc3ccccc32)c(Cl)c1` (racemic) [Example 84]: a half-maximal effect (EC50) was put at 2.5 nM and the maximal response (Emax) is 100%.
The molecule `CCN(CC)C(=O)CNC(=O)C1(C)CCN(C(=O)c2ccc(N3CCCC3)cc2Cl)c2ccccc2C1` (racemic) [Example 81] came in with a 50% effective concentration (EC50) of 6.6 nM and a maximal effect (Emax) of 100%.
